# In patent US5451506A, “Oncostatin M and novel compositions having anti-neoplastic activity” (Oncogen Limited Partnership, priority 1993, dated 1995):
# Tests used:
# [1] = test system: human proliferative or cytotoxic T cell responses; test: Mixed leukocyte culture reactions (MLC); assay type: cell-based; conditions: 500 GIA units/ml
# [2] = test system: A375 melanoma cells; test: Soft agar colony inhibition assay (TGI); assay type: cell-based, human; conditions: 11 days; for # Colonies: untreated 106
# Procedure: A 0.5 ml base layer of 0.5% agar (Agar Noble; Difco Laboratories, Detroit, Mich.) in growth medium was added to 24-well Costar tissue culture plates. One-half ml 0.3% agar in growth medium containing 1 to 2.5×10^3 A375 cells or other cell line of interest at an appropriate cell density, and various concentrations of the factor to be tested were overlaid on the base layer of agar. The plates were incubated at 37° C. in a humidified atmosphere of 5% CO2 in air and refed after 7 days by addition of 0.5 ml of 0.3% agar in growth medium containing the same concentration of the factor to be tested as used previously. Colonies were enumerated unfixed and unstained. The number of colonies with greater than 6 cells were scored.
# A375 cells were plated in soft agar, with or without the indicated GIA units of Oncostatin M (see Table 3), as described above in Example 1C. The factor used was from a C18^3 propanol column fraction with peak tumor growth inhibitory activity (GIA). The number of colonies was enumerated at 11 days.
# [3] = test system: A375 cells; test: Effect of acid, base and heat treatments on tumor growth inhibitory activity; assay type: cell-based, human
# Procedure: (§1) The assays were performed in 96 flat well plates (Costar 3596). Human melanoma cells (A375) (3×10^3 /100 μl) or cells from another cell line of interest were at an appropriate cell density used. Cells in 100 μl growth medium were placed in each well. Three hours later, 100 μl of test sample in growth medium was added to each well. Plates were incubated at 37° C. for 3 days. Then 25 μl (0.5 μCi) of a solution of ^3 H-thymidine (specific activity 27 μCi/μg) was added to each well for the final 6 hours of incubation. The cells were then transferred to glass filter strips using a multiwell harvester (PHD Cell Harvester, Cambridge Technology, Inc.). The filters were transferred to scintillation vials. Two ml of scintillation fluid (ScientiVerse II, Fisher Scientific Co.) was added and the samples counted in a scintillation counter to quantitate ^3 H-thymidine incorporation.
# U937 cells (RPMI 1640+5% FCS seeded at 7.5×10^5 cells/ml) were treated with TPA (10 ng/ml) for 3 days. The cells were then washed with medium (serum-free RPMI 1640) and incubated for 24 hr in serum-free (serum-free RPMI 1640) medium before collecting the supernatants. The supernatants were treated with 1N acetic acid or 1N ammonium hydroxide. They were then dialyzed against medium (serum-free RPMI 1640) and tested for their ability to inhibit ^3 H-thymidine incorporation into A375 cells using the assay as described in Example 1B
# [4] = test system: A375 melanoma cells; test: Cell growth modulatory assay using 3H-thymidine incorporation into DNA (GIA); assay type: cell-based, human; design: Observed % Inhibition of 3H-TdR Incorporation: concentration or dose not given beside the values
# Procedure: as §1
# [5] = test system: A549 lung cancer cells; test: as above; assay type: cell-based, human
# Procedure: as §1
# (§2) The effect of Oncostatin M on various cell lines was assessed using a cell growth modulatory assay performed as described in Example 1B, above. The cell lines tested included A549 lung cancer cells. HTB10 neuroblastoma cells, and A375 melanoma cells.
# [6] = test system: HTB10 neuroblastoma cells; test: as above; assay type: cell-based, human
# Procedure: as §1, §2
# [7] = test system: bone marrow cells; test: Granulocytic/myelocytic colony formation from bone marrow cells; assay type: cell-based; conditions: concentrations up to 100 GIA units/ml
# [8] = test system: Mouse L929 cells; test: Effect on mouse L929 cells; assay type: cell-based; conditions: mouse L929 cells, sensitive to tumor necrosis factor
# Procedure: The ability of PBL-derived Oncostatin M to affect replication of a variety of cells was also investigated. Mouse L929 cells were insenstive to PBL-derived Oncostatin M using up to 1000 GIA units/ml. Growth of human fibroblasts, WI26, was stimulated by treatment with 1000 GIA units/ml. Normal human T-lymphocyte proliferation at 72 hours post mitogenesis was not affected by up to 500 GIA units/ml.
# [9] = test system: WI26 fibroblasts; test: Cell growth modulatory assay using 3H-thymidine incorporation into DNA (GIA); assay type: cell-based, human
# Procedure: as §1
# (§3) Human tumor cells (A375 melanoma cells, A549 lung cancer cells, HBT10 neuroblastoma cells, and SK-MEL28 melanoma cells) were seeded at 3×10^3 cells/well and normal fibroblasts (WI26 cells and WI38 cells) at 1.5×10^3 cells/well in 96-well plates. Various concentrations of purified Oncostatin M, obtained from the fraction from the C18^3 column with peak antiproliferative activity against A375 cells were used. The assay was performed as described in Example 1B above.
# [10] = test system: SK-MEL28 melanoma cells; test: as above; assay type: cell-based, human
# Procedure: as §1, §3
# [11] = test system: WI38 fibroblasts; test: as above; assay type: cell-based, human
# Procedure: as §1, §3
substance,measurement,setting,value
Oncostatin M: Human polypeptide growth regulator produced by activated leukocytes; apparent molecular weight approximately 28 kD by PAGE,Proliferative or cytotoxic T cell responses in MLC,[1],does not suppress
same,% Inhibition of Colony Formation,[2]; 27 GIA Units/Well,89%
same,# Colonies,[2]; 27 GIA Units/Well,11
same,% Inhibition of Colony Formation,[2]; 45 GIA Units/Well,69%
same,# Colonies,[2]; 45 GIA Units/Well,32
same,% Inhibition of Colony Formation,[2]; 83 GIA Units/Well,94%
same,# Colonies,[2]; 83 GIA Units/Well,6
same,% Inhibition of Colony Formation,[2]; 250 GIA Units/Well,96%
same,# Colonies,[2]; 250 GIA Units/Well,4
same,Resistance to inactivation by acid and base,"[3]; 1N acetic acid and 1N ammonium hydroxide, dialyzed supernatant",substantially resistant to inactivation
same,Heat stability of activity,[3]; 56° C. for 1 hr,retain its activity
same,Heat stability of activity,[3]; 95° C. for 30 min,lose substantially all its activity
same,GIA Units to Cause 30% Inhibition 3H-TDR Incorporation,[4]; A375 (melanoma),0.3 GIA Units
same,concentration to cause 30% inhibition 3H-TdR,"[4]; A375, based upon the specific activity of purified Oncostatin M",~0.015 ng/mL
same,Observed % Inhibition of 3H-TdR Incorporation,[4]; A375 Cells,17%
same,% Inhibition of 3H-thymidine incorporated,"[4]; Exp. 1, A375, 1 GIA units/well",46%
same,% Inhibition of 3H-thymidine incorporated,"[4]; Exp. 1, A375, 4 GIA units/well",62%
same,% Inhibition of 3H-thymidine incorporated,"[4]; Exp. 1, A375, 16 GIA units/well",83%
same,% Inhibition of 3H-thymidine incorporated,"[4]; Exp. 2, A375, 3 GIA units/well",76%
same,% Inhibition of 3H-thymidine incorporated,"[4]; Exp. 2, A375, 9 GIA units/well",87%
same,% Inhibition of 3H-thymidine incorporated,"[4]; Exp. 3, A375, 8 GIA units/well",71%
same,% Inhibition of 3H-thymidine incorporated,"[4]; Exp. 3, A375, 25 GIA units/well",85%
same,% Inhibition of 3H-thymidine incorporated,"[4]; Exp. 3, A375, 75 GIA units/well",89%
same,% Inhibition of 3H-thymidine incorporated,"[4]; Exp. 4, A375, 1 GIA units/well",59%
same,% Inhibition of 3H-thymidine incorporated,"[4]; Exp. 4, A375, 5 GIA units/well",75%
same,% Inhibition of 3H-thymidine incorporated,"[4]; Exp. 4, A375, 20 GIA units/well",87%
same,Growth inhibitory activity contained in the fraction,"[4]; apparently homogeneous C18^3 fraction, approximately 300 ng protein","about 40,000 GIA units"
same,Proliferation of A375 cells,"[4]; protein electroeluted from the 28 kD band, non-reducing PAGE",inhibit proliferation of A375 cells
same,GIA Units to Cause 30% Inhibition 3H-TDR Incorporation,[5]; A549 (lung cancer),21.0 GIA Units
same,concentration to cause 30% inhibition 3H-TdR,"[5]; A549, based upon the specific activity of purified Oncostatin M",approximately 1.4 ng/ml
same,% Inhibition of 3H-thymidine incorporated,"[5]; Exp. 3, A549, 8 GIA units/well",16%
same,% Inhibition of 3H-thymidine incorporated,"[5]; Exp. 3, A549, 25 GIA units/well",22%
same,% Inhibition of 3H-thymidine incorporated,"[5]; Exp. 3, A549, 75 GIA units/well",30%
same,% Inhibition of 3H-thymidine incorporated,"[6]; Exp. 2, HTB10, 3 GIA units/well",11%
same,% Inhibition of 3H-thymidine incorporated,"[6]; Exp. 2, HTB10, 9 GIA units/well",22%
same,% Inhibition of 3H-thymidine incorporated,"[6]; Exp. 2, HTB10, 27 GIA units/well",28%
same,GIA Units to Cause 30% Inhibition 3H-TDR Incorporation,[6]; HTB10 (neuroblastoma),81.0 GIA Units
same,concentration to cause 30% inhibition 3H-TdR,"[6]; HTB10, based upon the specific activity of purified Oncostatin M",~4.0 ng/mL
same,Granulocytic/myelocytic colony formation,[7],does not inhibit granulocytic/myelocytic colony formation
same,Cytotoxic activity,[8],lacks cytotoxic activity
same,% Stimulation of 3H-thymidine incorporated,"[9]; Exp. 2, WI26, 3 GIA units/well",52%
same,% Stimulation of 3H-thymidine incorporated,"[9]; Exp. 2, WI26, 9 GIA units/well",36%
same,% Stimulation of 3H-thymidine incorporated,"[9]; Exp. 2, WI26, 27 GIA units/well",46%
same,Cytotoxic activity,[9]; WI26 human fibroblasts,lacks cytotoxic activity
same,% Inhibition of 3H-thymidine incorporated,"[10]; Exp. 4, SK-MEL28, 1 GIA units/well",11%
same,% Inhibition of 3H-thymidine incorporated,"[10]; Exp. 4, SK-MEL28, 5 GIA units/well",25%
same,% Inhibition of 3H-thymidine incorporated,"[10]; Exp. 4, SK-MEL28, 20 GIA units/well",44%
same,% Stimulation of 3H-thymidine incorporated,"[11]; Exp. 1, WI38, 1 GIA units/well",46%
same,% Stimulation of 3H-thymidine incorporated,"[11]; Exp. 1, WI38, 4 GIA units/well",30%
same,% Stimulation of 3H-thymidine incorporated,"[11]; Exp. 1, WI38, 16 GIA units/well",25%
same,Cytotoxic activity,[11]; WI38 human fibroblasts,lacks cytotoxic activity
